Reference: patent US11197861B2, “Methods of screening BRaf inhibitors for treating cutaneous reactions” (Lutris Pharma Ltd., priority 2016, dated 2021)

Test system: MAPK (ERK)
Assay: Activation of MAPK (ERK) in human normal keratinocytes (HEKa), Western blot of phospho-ERK / total ERK
Assay type: cell-based
Conditions: human primary keratinocytes (HEKa), 2 hours treatment
Protocol: Human normal Keratinocyte cells HEKa were seeded in 10 cm dishes (300,000 cells/dish) and incubated overnight at 37° C., 5% CO2. Next morning, the cells were starved for 2 hours and then treated with the various inhibitors (or control treatments) for 2 hours. Post incubation the cells were lyzed with RIPA Buffer and the protein extracts were analyzed by Western-Blot for detection of phospho ERK and total ERK2, by use of suitable antibodies. Untreated and 0.1% DMSO treated cells were used as negative control. Growth factors mix (HKGS) was used as positive control (Gibco CAT #: S0015).
Western Blot: 7.5 μg of total extract was loaded on 10% or 12% acrylamide gels. Following transfer, the membranes were blocked with TBST/5% skim milk and then incubated with Mouse anti phospho ERK (1:1000 in TBST 5% BSA, ON at 4° C.) and goat anti Mouse HRP (1:10,000 in TBST 5% BSA, 1 hour RT). The membranes were exposed using SuperSignal West Pico Chemiluminescent Substrate. The HRP was then inactivated by incubating the membranes for 1 hour with 0.5% Sodium azide. Following washes and ECL exposure in order to ensure absence of signal, the membranes were reblocked for 15 min with TBST/5% skim milk and then incubated with Rabbit anti total ERK2 (1:500 in TBST 5% BSA, ON at 4° C.), goat anti Rabbit HRP (1:5,000 in TBST 5% BSA, 1 hour RT) and finally exposed using the SuperSignal West Pico Chemiluminescent Substrate. The resulting images (films) were scanned and the signal were quantified using ImageJ software. BRaf inhibitors used in the experiments included, C-1, C-15, C-19 C-A or vemurafenib, at concentrations of 0.3 μM; 1 μM or 3 μM. ZM (ZM336372) a c-Raf inhibitor, which serves in the present experiments as a Braf activator and was used as a control.

[1] = increasing amounts 0.3 μM, 1 μM or 3 μM, FIGS. 1-3

Compound | activation of ERK (increase in relative amount of Phosphorylated ERK) (1 μM, FIGS. 4A-C) | activation of ERK (increase in relative amount of Phosphorylated ERK) [1]
CNc1ncc2cc(-c3c(C)ccc4c(Nc5cc(C(C)(C)C)nn5C)nccc34)ccc2n1 [C-19] | activation of ERK | activation of ERK
Cc1ccc2c(Nc3ccc(Cl)cc3)nccc2c1Nc1ncccc1-c1ncnc2[nH]cnc12 [C-1] | activation of ERK | activation of ERK
C#Cc1cccc(Nc2nccc3c(Nc4ncccc4-c4cc(NC)ncn4)c(C)ccc23)c1 [C-15] | activation of ERK | activation of ERK
Cc1ccc(NC(=O)c2cccc(N(C)C)c2)cc1NC(=O)c1ccc(O)cc1 [ZM 336372] | activation of ERK | activation of ERK
CNc1ncc2cc(-c3c(C)ccc4c(Nc5cccc(OC(F)(F)F)c5)nc(C)nc34)ccc2n1 [C-A] | activation of ERK | activation of ERK
